In patent US20080075784A1, “Taste Making Formulation Comprising The Drug In A Dissolution-Retarded Form And/Or Cyclodextrin In A Dissolution-Enhanced Form” (Pfizer Inc., priority 2004, published 2008):

Assay: β-cyclodextrin dissolution rate in deionized water by refractive index
Format: physicochemical
Settings: for amount of dissolved cyclodextrin at one minute relative to the 156 μm cyclodextrin: one minute following administration; for β-Cyclodextrin Dissolved (%): 350 mg in 50 mL deionized water
Experimental: In this example, the amount of dissolved cyclodextrin provided by several different β-cyclodextrin samples with varying ranges of particle size was determined. Samples of β-cyclodextrin with average particle sizes ranging from 116 μm to 249 μm were obtained from Roquette America of Keokuk, Iowa. In addition, a β-cyclodextrin sample with an average particle size range of about 57 μm was prepared by first dissolving the 249-μm commercially available sample in water and then lyophilizing the solution to form a fine powder. Volume weighted mean particle diameter in microns for each β-cyclodextrin sample was determined using a Horiba particle sizer.
The dissolution rates of these samples were determined as follows. A 350 mg sample of β-cyclodextrin of a given particle size was placed into 50 mL of deionized water, and the refractive index was measured at the time points noted in Table 2. Refractive index measurements were compared to a calibration curve of standards with known concentration, and the concentration of dissolved β-cyclodextrin versus time was determined.

| SMILES | amount of dissolved cyclodextrin at one minute relative to the 156 μm cyclodextrin | β-Cyclodextrin Dissolved (%) (time 0 min) | β-Cyclodextrin Dissolved (%) (time 1 min) | β-Cyclodextrin Dissolved (%) (time 2 min) | β-Cyclodextrin Dissolved (%) (time 3 min) | β-Cyclodextrin Dissolved (%) (time 4 min) | β-Cyclodextrin Dissolved (%) (time 5 min) | cyclodextrin dissolved after one minute (one minute, value taken from Table 3) [wt %] | amount of dissolved cyclodextrin provided by crystalline cyclodextrin (one minute after administration) |
| --- | --- | --- | --- | --- | --- | --- | --- | --- | --- |
| OC[C@H]1O[C@@H]2O[C@H]3[C@H](O)[C@@H](O)[C@@H](O[C@H]4[C@H](O)[C@@H](O)[C@@H](O[C@H]5[C@H](O)[C@@H](O)[C@@H](O[C@H]6[C@H](O)[C@@H](O)[C@@H](O[C@H]7[C@H](O)[C@@H](O)[C@@H](O[C@H]8[C@H](O)[C@@H](O)[C@@H](O[C@H]1[C@H](O)[C@H]2O)O[C@@H]8CO)O[C@@H]7CO)O[C@@H]6CO)O[C@@H]5CO)O[C@@H]4CO)O[C@@H]3CO [57 μm, β-cyclodextrin] | about 2.4 fold | 0 | 102 | 102 | 97 | 99 | 100 |  |  |
| OC[C@H]1O[C@@H]2O[C@H]3[C@H](O)[C@@H](O)[C@@H](O[C@H]4[C@H](O)[C@@H](O)[C@@H](O[C@H]5[C@H](O)[C@@H](O)[C@@H](O[C@H]6[C@H](O)[C@@H](O)[C@@H](O[C@H]7[C@H](O)[C@@H](O)[C@@H](O[C@H]8[C@H](O)[C@@H](O)[C@@H](O[C@H]1[C@H](O)[C@H]2O)O[C@@H]8CO)O[C@@H]7CO)O[C@@H]6CO)O[C@@H]5CO)O[C@@H]4CO)O[C@@H]3CO [183 μm, β-cyclodextrin] |  | 0 | 45 | 52 | 64 | 64 | 71 |  |  |
| OC[C@H]1O[C@@H]2O[C@H]3[C@H](O)[C@@H](O)[C@@H](O[C@H]4[C@H](O)[C@@H](O)[C@@H](O[C@H]5[C@H](O)[C@@H](O)[C@@H](O[C@H]6[C@H](O)[C@@H](O)[C@@H](O[C@H]7[C@H](O)[C@@H](O)[C@@H](O[C@H]8[C@H](O)[C@@H](O)[C@@H](O[C@H]1[C@H](O)[C@H]2O)O[C@@H]8CO)O[C@@H]7CO)O[C@@H]6CO)O[C@@H]5CO)O[C@@H]4CO)O[C@@H]3CO [249 μm, β-cyclodextrin] |  | 0 | 20 | 26 | 42 | 54 | 67 | 20 |  |
| OC[C@H]1O[C@@H]2O[C@H]3[C@H](O)[C@@H](O)[C@@H](O[C@H]4[C@H](O)[C@@H](O)[C@@H](O[C@H]5[C@H](O)[C@@H](O)[C@@H](O[C@H]6[C@H](O)[C@@H](O)[C@@H](O[C@H]7[C@H](O)[C@@H](O)[C@@H](O[C@H]8[C@H](O)[C@@H](O)[C@@H](O[C@H]1[C@H](O)[C@H]2O)O[C@@H]8CO)O[C@@H]7CO)O[C@@H]6CO)O[C@@H]5CO)O[C@@H]4CO)O[C@@H]3CO [156 μm, β-cyclodextrin] |  | 0 | 41 | 81 | 96 | 92 | 95 |  | about 41% |
| OC[C@H]1O[C@@H]2O[C@H]3[C@H](O)[C@@H](O)[C@@H](O[C@H]4[C@H](O)[C@@H](O)[C@@H](O[C@H]5[C@H](O)[C@@H](O)[C@@H](O[C@H]6[C@H](O)[C@@H](O)[C@@H](O[C@H]7[C@H](O)[C@@H](O)[C@@H](O[C@H]8[C@H](O)[C@@H](O)[C@@H](O[C@H]1[C@H](O)[C@H]2O)O[C@@H]8CO)O[C@@H]7CO)O[C@@H]6CO)O[C@@H]5CO)O[C@@H]4CO)O[C@@H]3CO [116 μm, β-cyclodextrin] | about 1.4 fold | 0 | 58 | 76 | 84 | 88 |  |  |  |
